Data on one compound can be found in patent publication US20240366633A1, “METHODS FOR TREATMENT OF OPIOID USE DISORDER WITH CANNABINOIDS” (ANANDA SCIENTIFIC, INC, priority 2021, published 2024).

The conditions of series [1]: rat, 120 mg/kg dose; cited from earlier work.
A further series concerns the target CB2 receptors (Homo sapiens, UniProt P34972). To be noted: cited from earlier work.
The nature of series [2]: Chemical characteristics of Composition A′, concentrated and diluted forms. The class given is physicochemical. How it is done: Several tests were conducted to determine the chemical characteristics of composition Composition A′, both in concentrated and diluted forms. […] All liquid nanodomain droplets range in size from 5 to 20 nm. The pH of both the concentrate and diluted formulations is between 6.0 and 7.5.

The conditions of series [3]: healthy volunteers and subjects with various medical conditions, 10 mg to 6000 mg, single and multiple doses; cited from earlier work.

Chain of CB2 receptors (P34972 whole entry): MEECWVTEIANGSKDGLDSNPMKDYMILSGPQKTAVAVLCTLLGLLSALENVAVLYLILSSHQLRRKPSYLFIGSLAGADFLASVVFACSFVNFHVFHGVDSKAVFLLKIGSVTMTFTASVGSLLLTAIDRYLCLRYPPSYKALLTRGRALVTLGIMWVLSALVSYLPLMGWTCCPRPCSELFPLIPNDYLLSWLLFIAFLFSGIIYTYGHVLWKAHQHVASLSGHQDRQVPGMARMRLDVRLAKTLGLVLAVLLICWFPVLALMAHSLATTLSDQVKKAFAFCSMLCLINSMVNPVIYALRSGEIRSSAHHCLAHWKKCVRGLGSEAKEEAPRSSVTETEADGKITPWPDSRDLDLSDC

For `C=C(C)[C@@H]1CCC(C)=C[C@H]1c1c(O)cc(CCCCC)cc1O` [CBD, 2-(1R,6R)-3-methyl-6-prop-1-en-2-ylcyclohex-2-en-1-yl-5-pentylbenzene-1,3-diol], the T1/2 in series [1] was 4 to 5 h. For the same compound, on CB2 receptors, the “Affinity for CB2 receptors” value is “low affinity”. For the same compound, the “Log P” value in series [2] is on record as “about 6”. The “Association of CBD with formulation phases during storage” value in series [2] (both concentrated and diluted forms) was “remained associated with the surfactant and lipid phases”. Also, the Safety entry in series [3] was “safe”.
